Data on eight compounds can be found in patent publication US20180362893A1, “COMPOSITIONS COMPRISING AN ULTRAVIOLET INDICATOR” (Chemia Corporation, priority 2015, published 2018).

This data set is described as follows: Solubility of Pylaklor White Grains S-5 UV indicator in fragrances. As to conditions: for Color change of the solution: solution of the named fragrance with 5 wt. % Pylaklor White Grains S-5.
Setting [1] is: Pylaklor White Grains S-5 at 5 wt. % in the named fragrance (Table 5).
[2] abbreviates: Pylaklor White Grains S-5 at 5 wt. % in the named aldehyde fragrance (Table 6).

Structures are written as SMILES.

Protocol: The solubility of Pylaklor White Grains S-5 UV indicator was evaluated in difference chemical classes of fragrances at a UV indicator concentration of 5 wt. %. The resulting admixtures were evaluated for UV activity by exposure to UV light (400 nm ±5 nm) using a Rayovac VBUV-B light source and visual observation.
The solubility of Pylaklor White Grains S-5 UV indicator was evaluated in three different aldehyde fragrances at a UV indicator concentration of 5 wt. %. The resulting admixtures were evaluated for UV activity by exposure to UV light (400 nm±5 nm) using a Rayovac VBUV-B light source and visual observation.

As to `CC/C=C\CCO` [Cis-3-hexanol], the “Color change of the solution” value was “changed from a straw color to a yellow color”. The Soluble entry under setting [1] is listed as “Yes”.

Take `CCOC(C)=O` [Ethyl acetate]: the Soluble entry under setting [1] is “Yes”.

For `O=C/C=C/c1ccccc1` [Cinnamic aldehyde], the Soluble result under setting [2] is on record as “Yes”.

For the compound `CCCCCCCCCC=O` [Aldehyde C-10 (decanal), decanal], the Soluble entry under setting [2] was “Yes”.

On to `C=CC(C)(O)CCC=C(C)C` (stereo not shown) [Linalool], for which, under setting [1], the Soluble entry was “Yes”.

Turning to `CCCCCCC(C=O)=Cc1ccccc1` [Hexyl cinnamic aldehyde], the “Color change of the solution” value was “changed color”. In addition, the Soluble entry under setting [1] is on record as “Yes”.

As for `CCCCCCC1CCC(=O)O1` (stereo not shown) [Gamma-decalactone], under setting [1], the Soluble entry is reported as “Yes”.

Consider `CCCCCC1C(=O)CCC1CC(=O)OC` (stereo not shown) [Methyl dihydrojasmonate], for which the Soluble entry under setting [1] is “Yes”.
